In US20170008888A1 (KYORIN PHARMACEUTICAL CO., LTD., priority 2014, published 2017):
Read-outs that look alike come from different tables or passages of the source.

Legend:
human PBMCs = test: Human PBMC TNF-α response to endotoxin (ELISA); type: cell-based; details: 0.1 μg/ml LPS 16 h, read-out: EC50 for the inhibition of the human PBMC TNF-α response to endotoxin, ave. ± S.D.
Procedure: Human PBMCs (Astarte Biologics, Redmond, Wash.) were seeded at 2e6 cells/ml in RPMI 1640 containing 10% (v/v) charcoal-dextran treated, heat inactivated FBS (Omega Scientific, Tarzana, Calif.), 0.05 mM 2-Mercaptoethanol (Sigma-Aldrich, St. Louis, Mo.), and 1×Pen/Strep Amphotericin B (Lonza, Allendale, N.J.). Cells were pre-treated with test compounds (10 μM down by ⅕ in a 4-point serial dilution series) for 1 h at 37° C. in a humidified atmosphere at 5% CO2. Cells were then stimulated with 0.1 μg/ml lipopolysaccharide (LPS) from E. coli 0111:B4 (EMD Millipore, Billerica, Mass.) for 16 h at 37° C. in a humidified atmosphere at 5% CO2. Supernatant was collected and a 25-fold dilution was analyzed for TNF-α concentration using an ELISA kit from Life Technologies (Grand Island, N.Y.) according to the manufacturer's instructions. Absorbance at 450 nm was read using the Synergy 2 multi-detection microplate reader (BioTek Instruments, Winooski, Vt.).

JAK1 = molecular target: T1, JAK1 (Homo sapiens, UniProt P23458); test: Probe-based (AX9989) kinase profiling in Jurkat lysate: JAK1; type: binding
T1 construct: screened for activity against several kinases in Jurkat cells; endogenous in cells; host or cells: Jurkat cell lysate
T1 sequence (P23458 whole entry): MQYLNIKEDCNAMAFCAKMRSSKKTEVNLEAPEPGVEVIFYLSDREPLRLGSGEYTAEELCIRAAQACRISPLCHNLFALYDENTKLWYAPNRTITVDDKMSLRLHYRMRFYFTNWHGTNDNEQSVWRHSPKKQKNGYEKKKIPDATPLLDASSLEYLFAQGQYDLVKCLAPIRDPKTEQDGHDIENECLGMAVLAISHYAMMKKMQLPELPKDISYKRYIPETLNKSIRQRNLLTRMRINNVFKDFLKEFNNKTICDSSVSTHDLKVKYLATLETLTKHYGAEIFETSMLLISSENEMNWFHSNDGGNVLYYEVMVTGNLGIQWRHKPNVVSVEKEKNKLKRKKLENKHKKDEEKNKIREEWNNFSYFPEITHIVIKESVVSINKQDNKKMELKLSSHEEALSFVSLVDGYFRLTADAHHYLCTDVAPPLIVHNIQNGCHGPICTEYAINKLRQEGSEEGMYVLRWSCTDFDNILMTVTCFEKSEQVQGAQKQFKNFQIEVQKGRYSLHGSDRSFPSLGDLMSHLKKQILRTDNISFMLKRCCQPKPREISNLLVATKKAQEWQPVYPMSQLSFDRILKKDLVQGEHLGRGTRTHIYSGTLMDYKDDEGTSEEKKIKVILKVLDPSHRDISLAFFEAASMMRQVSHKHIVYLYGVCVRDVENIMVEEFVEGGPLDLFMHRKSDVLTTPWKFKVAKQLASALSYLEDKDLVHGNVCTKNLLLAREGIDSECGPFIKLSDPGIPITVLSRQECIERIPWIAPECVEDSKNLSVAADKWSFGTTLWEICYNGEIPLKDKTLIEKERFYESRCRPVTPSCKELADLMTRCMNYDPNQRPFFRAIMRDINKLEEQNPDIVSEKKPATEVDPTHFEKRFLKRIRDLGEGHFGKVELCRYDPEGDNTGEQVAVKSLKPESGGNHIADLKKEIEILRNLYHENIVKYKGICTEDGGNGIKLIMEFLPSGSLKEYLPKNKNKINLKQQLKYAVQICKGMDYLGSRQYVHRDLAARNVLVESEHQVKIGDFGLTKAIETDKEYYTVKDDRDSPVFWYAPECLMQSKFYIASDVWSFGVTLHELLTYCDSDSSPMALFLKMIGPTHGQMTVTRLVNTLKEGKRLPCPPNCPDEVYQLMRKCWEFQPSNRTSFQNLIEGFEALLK
Procedure: (§1) In this example, potency of the compounds as ERK5 inhibitors was assessed, and the compounds were screened for activity against several kinases in Jurkat cells.
(§2) Jurkat cell pellets were resuspended in four volumes of lysis buffer (50 mM HEPES pH 7.5, 150 mM NaCl, 0.1% Triton-X-100, 1% v/v phosphatase, inhibitor cocktail II [EMD/Calbiochem, #524625]), sonicated using a tip, sonicator, and Dounce homogenized. Lysate was cleared by centrifugation, at 16,000 g for 15 min., was gel filtered (BioRad 10DG) and MnCl2 was then added to a final concentration of 20 mM before treatment with the test compound and probe labeling. […] All compound treatments were performed at room temperature.
(§3) Acyl phosphate ATP probe (AX9989) labeling reactions were performed at room temperature with a final probe concentration of 5 μM after a 15 min pre-incubation of lysate with a test compound. All reactions were performed in duplicate, using 445 μl/sample at 5 mg/ml. Probe-labeled lysates were denatured and reduced (6 M urea, 10 mM DTT, 65° C., 15 min), alkylated (40 mM iodoacetamide, 37° C., 30 min, and gel filtered (Sephadex G25) into 10 mM ammonium bicarbonate, 2 M urea, 5 mM methionine. The desalted protein mixture was digested with trypsin (0.015 mg/ml) for 1 hr at 37° C., and desthiobiotinylated peptides were captured using a […] high-capacity streptavidin resin (Thermo Scientific). Captured peptides were then washed extensively using 150 μl/wash with three different wash buffers: (A) 3 times with 1% triton, 0.5% tergitol, 1 mM EDTA in PBS; (B) 18 times with PBS; and (C) 8 times with HPLC grade water. Peptides were eluted from the streptavidin beads using two 35-μL washes of a 50% CH3CN/water mixture containing 0.1% TFA at room temperature.
(§4) Kinase active site peptides were identified and quantified using LC/MS. Percent inhibition was calculated as the normalized decrease in the ESI-MS fragment intensities of probe-labeled peptides in samples incubated with the test compound compared to those without.

AurB or AurC = test: Probe-based (AX9989) kinase profiling in Jurkat lysate: AurB or AurC; type: binding
Procedure: as §1, §2, §3, §4

AurA = molecular target: T2, AurA (Homo sapiens, UniProt O14965); test: Probe-based (AX9989) kinase profiling in Jurkat lysate: AurA; type: binding
T2 construct: screened for activity against several kinases in Jurkat cells; endogenous in cells; host or cells: Jurkat cell lysate
T2 sequence (O14965 1-403): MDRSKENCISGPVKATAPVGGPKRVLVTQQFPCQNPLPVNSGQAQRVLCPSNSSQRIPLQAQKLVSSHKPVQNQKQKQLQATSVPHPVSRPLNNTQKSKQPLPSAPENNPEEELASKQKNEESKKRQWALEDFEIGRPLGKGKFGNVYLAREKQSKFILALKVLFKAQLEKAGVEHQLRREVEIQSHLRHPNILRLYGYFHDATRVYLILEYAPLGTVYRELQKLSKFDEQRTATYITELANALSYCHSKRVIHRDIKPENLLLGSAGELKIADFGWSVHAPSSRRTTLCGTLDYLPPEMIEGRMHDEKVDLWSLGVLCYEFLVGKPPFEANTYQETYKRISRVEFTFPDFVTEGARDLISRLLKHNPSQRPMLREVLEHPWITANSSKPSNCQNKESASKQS
Procedure: as §1, §2, §3, §4

TAO2 = molecular target: T3, TAO2 (Homo sapiens, UniProt Q9UL54); test: Probe-based (AX9989) kinase profiling in Jurkat lysate: TAO2; type: binding
T3 construct: screened for activity against several kinases in Jurkat cells; endogenous in cells; host or cells: Jurkat cell lysate
T3 sequence (Q9UL54 1-1235): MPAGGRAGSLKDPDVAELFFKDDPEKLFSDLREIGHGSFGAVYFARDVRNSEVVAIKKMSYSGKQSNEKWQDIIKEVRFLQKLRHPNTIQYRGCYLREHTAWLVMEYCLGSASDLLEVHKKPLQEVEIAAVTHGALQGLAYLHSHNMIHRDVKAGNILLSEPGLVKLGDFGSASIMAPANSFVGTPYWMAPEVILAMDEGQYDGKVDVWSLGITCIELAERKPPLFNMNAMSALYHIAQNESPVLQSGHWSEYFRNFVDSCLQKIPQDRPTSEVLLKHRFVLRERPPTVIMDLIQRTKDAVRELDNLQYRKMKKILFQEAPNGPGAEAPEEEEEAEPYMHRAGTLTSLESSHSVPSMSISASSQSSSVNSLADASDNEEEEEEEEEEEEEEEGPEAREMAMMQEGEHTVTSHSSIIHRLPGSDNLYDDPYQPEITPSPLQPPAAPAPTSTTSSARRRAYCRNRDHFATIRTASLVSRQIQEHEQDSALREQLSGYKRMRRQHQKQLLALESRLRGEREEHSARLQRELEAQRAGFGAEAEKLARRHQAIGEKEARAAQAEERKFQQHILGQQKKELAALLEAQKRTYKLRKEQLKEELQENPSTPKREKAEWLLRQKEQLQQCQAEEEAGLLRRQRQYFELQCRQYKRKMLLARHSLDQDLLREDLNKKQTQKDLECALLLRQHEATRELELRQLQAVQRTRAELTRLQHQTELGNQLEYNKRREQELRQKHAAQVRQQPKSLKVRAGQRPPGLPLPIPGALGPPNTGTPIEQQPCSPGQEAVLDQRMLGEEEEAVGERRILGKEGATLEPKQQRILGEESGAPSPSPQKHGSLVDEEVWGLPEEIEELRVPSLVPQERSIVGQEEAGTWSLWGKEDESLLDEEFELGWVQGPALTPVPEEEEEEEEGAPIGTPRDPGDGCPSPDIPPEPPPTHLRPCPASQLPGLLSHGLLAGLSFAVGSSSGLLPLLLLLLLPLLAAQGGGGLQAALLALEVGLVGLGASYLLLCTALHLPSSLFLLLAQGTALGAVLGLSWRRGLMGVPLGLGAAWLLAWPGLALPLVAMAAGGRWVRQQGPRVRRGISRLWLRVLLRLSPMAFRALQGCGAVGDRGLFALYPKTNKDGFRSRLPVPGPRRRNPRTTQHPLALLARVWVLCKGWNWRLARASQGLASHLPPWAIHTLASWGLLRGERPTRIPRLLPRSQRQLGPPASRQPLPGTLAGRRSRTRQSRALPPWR
Procedure: as §1, §2, §3, §4

AMPKa1 or AMPKa2 = test: Probe-based (AX9989) kinase profiling in Jurkat lysate: AMPKa1 or AMPKa2; type: binding
Procedure: as §1, §2, §3, §4

ACK = molecular target: T4, ACK (Homo sapiens, UniProt Q07912); test: Probe-based (AX9989) kinase profiling in Jurkat lysate: ACK; type: binding
T4 construct: screened for activity against several kinases in Jurkat cells; endogenous in cells; host or cells: Jurkat cell lysate
T4 sequence (Q07912 whole entry): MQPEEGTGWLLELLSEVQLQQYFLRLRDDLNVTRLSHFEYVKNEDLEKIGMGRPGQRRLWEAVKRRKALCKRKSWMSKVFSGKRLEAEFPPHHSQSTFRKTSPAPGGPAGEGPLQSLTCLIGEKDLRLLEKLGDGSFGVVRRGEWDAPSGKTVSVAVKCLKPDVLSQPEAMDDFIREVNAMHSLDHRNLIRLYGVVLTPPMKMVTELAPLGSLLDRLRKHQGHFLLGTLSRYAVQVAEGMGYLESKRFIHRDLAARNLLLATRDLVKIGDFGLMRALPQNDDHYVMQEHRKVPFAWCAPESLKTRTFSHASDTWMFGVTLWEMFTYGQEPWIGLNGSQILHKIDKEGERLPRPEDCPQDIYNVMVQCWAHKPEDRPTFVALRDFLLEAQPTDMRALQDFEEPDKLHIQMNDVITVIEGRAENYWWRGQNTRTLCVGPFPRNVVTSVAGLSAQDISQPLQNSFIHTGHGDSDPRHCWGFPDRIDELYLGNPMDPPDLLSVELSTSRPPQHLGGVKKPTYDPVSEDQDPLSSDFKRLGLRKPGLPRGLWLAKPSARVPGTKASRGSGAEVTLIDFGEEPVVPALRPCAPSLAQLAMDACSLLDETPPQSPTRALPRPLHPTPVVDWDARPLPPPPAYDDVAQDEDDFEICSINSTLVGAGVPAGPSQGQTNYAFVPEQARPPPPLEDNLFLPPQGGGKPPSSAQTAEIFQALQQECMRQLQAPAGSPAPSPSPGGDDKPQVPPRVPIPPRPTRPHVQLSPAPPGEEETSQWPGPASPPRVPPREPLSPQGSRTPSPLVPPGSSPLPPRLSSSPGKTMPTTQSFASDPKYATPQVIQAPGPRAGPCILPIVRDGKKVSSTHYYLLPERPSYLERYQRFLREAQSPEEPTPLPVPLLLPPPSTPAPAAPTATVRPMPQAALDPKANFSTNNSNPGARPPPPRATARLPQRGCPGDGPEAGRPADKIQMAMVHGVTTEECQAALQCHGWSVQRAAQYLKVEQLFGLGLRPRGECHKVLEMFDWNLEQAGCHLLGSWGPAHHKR
Procedure: as §1, §2, §3, §4

ERK5 = molecular target: T5, ERK5 (Homo sapiens, UniProt Q13164); test: Probe-based (AX9989 acyl phosphate ATP probe) kinase profiling in Jurkat lysate: ERK5; type: binding; details: for IC50: Jurkat lysate
T5 construct: screened for activity against several kinases in Jurkat cells; endogenous in cells; host or cells: Jurkat cell lysate
T5 sequence (Q13164 whole entry): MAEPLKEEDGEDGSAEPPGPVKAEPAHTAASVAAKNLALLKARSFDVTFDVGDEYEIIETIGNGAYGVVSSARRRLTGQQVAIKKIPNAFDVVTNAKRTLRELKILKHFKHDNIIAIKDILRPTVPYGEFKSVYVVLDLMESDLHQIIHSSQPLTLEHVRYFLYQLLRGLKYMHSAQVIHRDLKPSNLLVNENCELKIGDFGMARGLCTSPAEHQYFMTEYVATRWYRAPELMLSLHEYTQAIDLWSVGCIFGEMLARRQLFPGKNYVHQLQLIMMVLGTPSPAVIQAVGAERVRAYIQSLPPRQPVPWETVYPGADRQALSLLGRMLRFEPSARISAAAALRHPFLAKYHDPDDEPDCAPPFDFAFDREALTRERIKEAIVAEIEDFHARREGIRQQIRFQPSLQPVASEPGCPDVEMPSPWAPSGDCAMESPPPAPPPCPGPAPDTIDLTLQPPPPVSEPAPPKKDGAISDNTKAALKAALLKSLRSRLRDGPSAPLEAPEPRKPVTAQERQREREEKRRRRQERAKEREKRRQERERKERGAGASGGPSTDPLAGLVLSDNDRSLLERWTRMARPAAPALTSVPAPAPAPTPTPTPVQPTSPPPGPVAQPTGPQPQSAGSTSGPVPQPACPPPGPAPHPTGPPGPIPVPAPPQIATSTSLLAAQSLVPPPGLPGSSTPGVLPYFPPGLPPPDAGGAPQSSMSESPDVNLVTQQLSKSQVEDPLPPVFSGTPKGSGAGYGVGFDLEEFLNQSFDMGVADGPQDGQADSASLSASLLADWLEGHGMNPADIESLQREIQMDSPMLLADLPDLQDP
Procedure: as §1, §2, §3, §4
ERK5 IC50 values were calculated from the percent inhibition and the screening concentration.

ABL or ARG = test: Probe-based (AX9989) kinase profiling in Jurkat lysate: ABL or ARG; type: binding
Procedure: as §1, §2, §3, §4

[1] = calculated from percent inhibition and screening concentration, AX9989 probe

With `CCOc1cc(C(=O)NCCN2CCOCC2)ccc1Nc1cc2c(cn1)N(C)C(=O)c1ccccc1N2C` [Compound 5] the EC50 (human PBMCs) was 1750 nM, the inhibition at 1 µM (JAK1; screening concentration 1.0 μM, read-out: Kinase inhibition % at indicated screening concentration: JAK1) was ≤ 35% and the “Kinase inhibition % at indicated screening concentration: AurB or AurC” value (AurB or AurC; screening concentration 1.0 μM) was “E (E is ≦35%)”. For the same compound, the inhibition at 1 µM (AurA; screening concentration 1.0 μM, read-out: Kinase inhibition % at indicated screening concentration: AurA) was ≤ 35%, the inhibition at 1 µM (TAO2; screening concentration 1.0 μM, read-out: Kinase inhibition % at indicated screening concentration: TAO2) was ≤ 35% and the “Kinase inhibition % at indicated screening concentration: AMPKa1 or AMPKa2” value (AMPKa1 or AMPKa2; screening concentration 1.0 μM) was “E (E is ≦35%)”. The inhibition at 1 µM (ACK; screening concentration 1.0 μM, read-out: Kinase inhibition % at indicated screening concentration: ACK) was ≤ 35%, the IC50 (ERK5; calculated from percent inhibition of AX9989 labeling and the screening concentration) was 101 to 500 nM and the inhibition at 1 µM (ERK5; screening concentration 1.0 μM, read-out: Kinase inhibition % at indicated screening concentration: ERK5) was 50 to 75%. For the same compound, the “Kinase inhibition % at indicated screening concentration: ABL or ARG” value (ABL or ARG; screening concentration 1.0 μM) was “D (D is >35% to ≦50%)”.

For `CCOc1cc(C(=O)N2CC[C@@H](N(C)C)C2)ccc1Nc1cc2c(cn1)N(C)S(=O)(=O)c1ccccc1N2C` [Compound T3], the inhibition at 10 µM (JAK1; screening concentration 10 μM, read-out: JAK1 Inhibition % at indicated screening concentration) was ≤ 35%, the “AurB or AurC Inhibition % at indicated screening concentration” value (AurB or AurC; screening concentration 10 μM) was “E (E is ≦35%)” and the inhibition at 10 µM (AurA; screening concentration 10 μM, read-out: AurA Inhibition % at indicated screening concentration) was ≤ 35%. For the same compound, the inhibition at 10 µM (TAO2; screening concentration 10 μM, read-out: TAO2 Inhibition % at indicated screening concentration) was ≤ 35%, the “AMPKa1 or AMPKa2 Inhibition % at indicated screening concentration” value (AMPKa1 or AMPKa2; screening concentration 10 μM) was “E (E is ≦35%)” and the inhibition at 10 µM (ACK; screening concentration 10 μM, read-out: ACK Inhibition % at indicated screening concentration) was ≤ 35%. The IC50 (ERK5; [1]) was > 500 nM, the inhibition at 10 µM (ERK5; screening concentration 10 μM, read-out: ERK5 Inhibition % at indicated screening concentration) was ≤ 35% and the “ABL or ARG Inhibition % at indicated screening concentration” value (ABL or ARG; screening concentration 10 μM) was “E (E is ≦35%)”.

With `CCOc1cc(C(=O)N2CCOCC2)ccc1Nc1cc2c(cn1)N(C)C(=O)c1ccccc1S2` [Compound T82, 3-((2-ethoxy-4-(morpholine-4-carbonyl)phenyl)amino)-11-methylbenzo[f]pyrido[4,3-b][1,4]thiazepin-10(11H)-one] the inhibition at 1 µM (JAK1; screening concentration 1 μM, read-out: JAK1 Inhibition % at indicated screening concentration) was ≤ 35%, the “AurB or AurC Inhibition % at indicated screening concentration” value (AurB or AurC; screening concentration 1 μM) was “E (E is ≦35%)” and the inhibition at 1 µM (AurA; screening concentration 1 μM, read-out: AurA Inhibition % at indicated screening concentration) was ≤ 35%. The inhibition at 1 µM (TAO2; screening concentration 1 μM, read-out: TAO2 Inhibition % at indicated screening concentration) was ≤ 35%, the “AMPKa1 or AMPKa2 Inhibition % at indicated screening concentration” value (AMPKa1 or AMPKa2; screening concentration 1 μM) was “E (E is ≦35%)” and the inhibition at 1 µM (ACK; screening concentration 1 μM, read-out: ACK Inhibition % at indicated screening concentration) was ≤ 35%. For the same compound, the IC50 (ERK5; [1]) was 101 to 500 nM, the inhibition at 1 µM (ERK5; screening concentration 1 μM, read-out: ERK5 Inhibition % at indicated screening concentration) was 50 to 75% and the “ABL or ARG Inhibition % at indicated screening concentration” value (ABL or ARG; screening concentration 1 μM) was “E (E is ≦35%)”.
